Each compound was assayed on P. falciparum HB3 in RBCs, SYBR Green DNA fluorescence (assay: growth inhibition of P. falciparum HB3, dose response, HB3 strain, red blood cells, SYBR Green, cherry-picked (AID 652041);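 also: parasites exposed to compound for 72 hours before the DNA read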).

| Compound | AC35 |
| --- | --- |
| CC(=O)Nc1cccc(NC(=O)CSc2ccc(-c3ccccn3)nn2)c1 | 17 µM |
| FC(F)(F)c1nc(SCc2ccc(Cl)cc2Cl)n[nH]1 | 40 µM |
| O=C1Nc2c(Br)cccc2C1=O | 30.5 µM |
| Nc1cc2c3ccccc3ccc2c2ccccc12 | 0.249 µM |
| COC(=O)c1cccc2c1-c1ccccc1/C2=N/O | 16.5 µM |
| Cc1nn(CCC#N)c(N)c1C1(O)C(=O)Nc2c(Cl)cc(Cl)cc21 (configuration not stated) | 7.41 µM |
| O=C(Nc1nc(-c2ccccn2)cs1)c1ccc(Br)s1 | 0.662 µM |
| CCc1ccc(CN(C)C(=O)c2cc(COc3cccc(C(F)(F)F)c3)on2)nc1 | 29.1 µM |
| Cc1ccc(C(=O)C(SC(C)(C)C)n2cncn2)cc1 (configuration not stated) | 38.7 µM |
| Cc1[nH]n(-c2ccccc2)c(=O)c1/C=N/Nc1nncc(-c2ccccc2)n1 | 1.97 µM |
| C[n+]1c2cc(N)ccc2cc2ccc(N)cc21 | 0.0524 µM |
| CC1CCc2c(C(=O)Nc3ccccn3)csc2C1 (configuration not stated) | 35.6 µM |
| C=C(C)COc1ccc(-c2[nH]ncc2-c2ccc(Br)cc2)c(O)c1 | 2.25 µM |
| COc1cnc(-c2ccccn2)nc1Sc1ccc(C)cc1 | 3.64 µM |
| O=C(c1ccccc1)c1coc2c1C(=O)c1ccccc1C2=O | 1.49 µM |
| COc1cccc(/C=N/NC(=O)c2nc(-c3ccccc3)cc(-c3ccccc3)n2)c1O | 7.16 µM |
| O=C(OCC(=O)C12CC3CC(CC(C3)C1)C2)c1ccc(O)cc1 | 23.4 µM |
| CCCCC(CC)c1nnc(NC(=O)c2cccs2)s1 (configuration not stated) | 37.3 µM |
| CN(C)c1ccc(C=c2c3cc(O)ccc3n3c2cc(-c2ccccc2)[n+]3C)cc1 | 0.247 µM |
| COc1ccc(Sc2nc(-c3ccccn3)ncc2OC)cc1 | 3.53 µM |
| Cc1cc(Cl)ccc1C(=O)C1CCCN(C(=O)c2cncs2)C1 (configuration not stated) | 33.5 µM |
| CN1CCN(C(=O)c2cc(COc3ccc(F)cc3Cl)on2)CC1c1ccccc1 (configuration not stated) | 33.5 µM |

| Compound | AC35 |
| --- | --- |
| Cc1cc(-c2ccccc2)n(-c2cc(N/N=C/c3ccccc3O)ncn2)n1 | 3.85 µM |
| Oc1ccc(Br)cc1/C=N/Nc1ccccn1 | 1.61 µM |
| O=C1c2cc(F)ccc2-n2c1nc1ccccc1c2=O | 0.0251 µM |
| O/N=C(\c1ccc(Cl)cc1)c1cc2ccccc2o1 | 16.4 µM |
| Cc1ccccc1Oc1nc(-c2ccccn2)nc2ccccc12 | 4.4 µM |
| O=C(COc1ccccc1F)Nc1nc(-c2ccccn2)cs1 | 12 µM |
| COc1ccccc1-c1sc2cc3c(cc2c1C#Cc1cncn1C)OCO3 | 2.96 µM |
| Cc1ccccc1C(=O)NNC(=S)NC(=O)c1ccc(Cl)cc1Cl | 34.3 µM |
| CC(C)(C)C(O)C(Cc1ccccc1Cl)n1cncn1 (configuration not stated) | 39.3 µM |
| O=[N+]([O-])c1cccc(C=NNc2ccc3ccccc3n2)c1O | 6.73 µM |
| C[C@@]12CCC3[C@@](CCC4[C@@]3(C)CCC[C@@]4(C)C(=O)NCc3ccccc3)(CC1=O)C2 (some centres not stated) | 21.7 µM |
| Cc1oc2c(c1C(=O)c1ccccc1)C(=O)C(=O)c1ccccc1-2 | 3.48 µM |
| CCCC1CCC(c2ccc(/C(N)=N/O)cc2)CC1 (configuration not stated) | 24 µM |
| Cc1ccc2c(C)c3ccc4ccccc4c3c[n+]2c1 | 0.0701 µM |
| CCC(C)c1ccc(NC(=S)NCCn2cc(Br)cn2)cc1 (configuration not stated) | 10.5 µM |
| CC1=CC(=O)C=C(C)C1=NOS(=O)(=O)c1ccccc1 | 5.53 µM |
| CCOC(=O)c1cnc(-n2nc(C)cc2C)nc1NC1CCCC1 | 4.23 µM |
| C=C1C(=O)C23CCC4C(C)(C(=O)OC)CCCC4(C)C2CCC1(O)C3 (configuration not stated) | 1.72 µM |
| Oc1c(CN2CCCC2)cc(COCc2ccccc2)c2cccnc12 | 7.31 µM |
| Cc1ccc(S(=O)(=O)Nc2ccc(O)c3cccnc23)cc1 | 6.27 µM |
| O/N=C/c1ccccc1OCc1ccc(Cl)cc1 | 34.4 µM |
| CCCCNc1c(-c2cccc(Sc3ccc(OC)cc3)c2)nc2ccccn12 | 8.77 µM |

| Compound | AC35 |
| --- | --- |
| C=CCNC(=S)N1CCC(Cc2ccccc2)CC1 | 28 µM |
| CCc1ccc(OCc2n[nH]c(=S)n2Cc2ccccc2)cc1 | 34.4 µM |
| CCn1c(CNc2ccc(Cl)cc2)nnc1SCc1ccc(Cl)cc1 | 38.6 µM |
| COc1ccc2[nH]c(=O)c(CN(Cc3cccnc3)C(=O)Nc3ccccc3)cc2c1 | 15.7 µM |
| CC(NC(=S)NC1CCC(C(C)(C)C)CC1)c1ccccc1 (configuration not stated) | 8.88 µM |
| CC(=O)NC(c1cccc([N+](=O)[O-])c1)c1ccc2cccnc2c1O (configuration not stated) | 1.77 µM |
| O=c1c2ccccc2nc(-c2ccc(-c3ccccc3)cc2)n1-c1ccncc1 | 18.3 µM |
| CC1=CC(C)(C)N(S(=O)(=O)c2ccc(C)cc2)c2ccc(C)cc21 | 18.4 µM |
| C(=C1c2ccccc2-c2ccccc21)c1ccncc1 | 18.2 µM |
| O=C(CCCSc1ccccc1)Nc1nc(-c2ccccn2)cs1 | 8.91 µM |
| O=C(NCc1ccncc1)c1ccccc1Nc1ccc(SC(F)F)cc1 | 21.5 µM |
| COc1cnc(-c2ccccn2)nc1Sc1ccccc1 | 9.03 µM |
| CCCc1cc(C(N)=O)c(NC(=O)c2cc(C)on2)s1 | 39.7 µM |
| O=[N+]([O-])c1cc(C(F)(F)F)ccc1NCCc1c[nH]c2ccc(O)cc12 | 24.6 µM |
| Fc1ccc(CCNC(=S)Nc2ccc(F)c(Cl)c2)cc1 | 14.1 µM |
| O=C(N/N=C/c1ccc[nH]1)c1sc2ccccc2c1Cl | 15.8 µM |
| Clc1ccccc1C(c1ccccc1)(c1ccccc1)n1ccnc1 | 0.645 µM |
| CCOC(=O)c1cc2c(=Cc3ccc(N(C)C)cc3)c3ccccc3n2[n+]1C | 2.44 µM |
| O=C(c1ccccc1)N1C(=O)C(c2ccccc2)Oc2ccccc21 (configuration not stated) | 37.1 µM |
| Cc1cccc(Nc2nc(-c3ccc(O)cc3O)cs2)n1 | 18.6 µM |
| Cc1ccc(O)c(C2=NNC(c3ccc(Cl)cc3)C2)c1 (configuration not stated) | 3.59 µM |
| Cc1ccc(-n2nnnc2SCC(=O)N2CCc3ccccc3C2)c(C)c1 | 28.7 µM |

| Compound | AC35 |
| --- | --- |
| Oc1cccc2ccc(Nc3ccccn3)nc12 | 0.321 µM |
| COc1ccc2oc(=O)c(-c3csc(Nc4cccc(O)c4)n3)cc2c1 | 12 µM |
| CCc1cc(SC#N)cc(C)c1NC(=O)CCl | 7.66 µM |
| c1ccc(CSc2ccc(-c3ccccn3)nn2)nc1 | 23 µM |
| Cc1c(C(=O)O)cccc1-c1ccc(/C=N/Nc2ccc(Br)cc2)o1 | 21.3 µM |
| CCOC(=O)c1ccc(NC(=S)N(Cc2cccnc2)Cc2ccco2)cc1 | 28.1 µM |
| O=CC1=C(c2ccccc2)Oc2ccccc2O1 | 7.46 µM |
| CCC(C)n1ncn(-c2ccc(N3CCN(c4ccc(OCC5COC(Cn6cncn6)(c6ccc(Cl)cc6Cl)O5)cc4)CC3)cc2)c1=O (configuration not stated) | 3.81 µM |
| O=C(Nc1nnc(-c2ccccc2)o1)c1ccc(Cl)cc1 | 10.7 µM |
| CCCn1c(=O)c(C(=O)NCc2ccc(OC)c(OC)c2)c(O)c2ccccc21 | 21.8 µM |
| COc1ccc(O)c(C(=O)CC(=O)c2ccccc2C)c1 | 13.9 µM |
| Cc1ccc(Cl)cc1NC1=C/C(=N\S(=O)(=O)c2cccs2)c2ccccc2C1=O | 0.119 µM |
| Cc1cc(C(=O)COC(=O)Cc2n[nH]c(=O)c3ccccc23)c(C)n1-c1cccc(C(F)(F)F)c1 | 4.22 µM |
| O=c1c(O)c(-c2ccccc2)oc2ccccc12 | 21.6 µM |
| CCCCCCSc1ccc(-c2nc3ccccn3c2NCCCC)cc1 | 6.94 µM |
| COc1cccc(/C=N/Nc2ncnc3scc(-c4ccccc4)c23)c1O | 1.7 µM |
| CCCCCCCn1c(=O)c(C(=O)OC)c(N)c2ccccc21 | 4.22 µM |
| Cc1cccc2sc(NNC(=O)c3ccc(S(=O)(=O)N4CCCC(C)C4)cc3)nc12 (configuration not stated) | 4.44 µM |
| Oc1c(C(Nc2cccc(C(F)(F)F)c2)c2ccncc2)ccc2cccnc12 (configuration not stated) | 1.39 µM |
| CNc1cc(CSC)nc(SCc2ccc(Cl)cc2Cl)n1 | 22.3 µM |
| C=CCn1c(-c2cc(-c3ccc(C)cc3)nc3ccccc23)n[nH]c1=S | 14.1 µM |

Reference: PubChem BioAssay AID652041 (Broad Institute, 2013)
